IC50 data for 31 molecules are collected here from patent US20090270450A1, “CHEMICAL COMPOUNDS” (ASTRAZENECA AB, priority 2006, published 2009).

Broadly, the IC50 is the concentration that inhibits the measured activity by half. Lower therefore signals inhibition by little substance.

Molecules are shown by their SMILES.

For the assay, the target named is T1, His-tagged kinase domain of CSF-1R (amino acids 568-912) (Homo sapiens, UniProt P07333).
T1 construct: The His-tagged kinase domain of CSF-1R (i.e., amino acids 568-912, GeneBank ID NM_005211); His; made in house; host or cells: baculovirus infected SF+Express insect cells
T1 sequence (P07333 568-912): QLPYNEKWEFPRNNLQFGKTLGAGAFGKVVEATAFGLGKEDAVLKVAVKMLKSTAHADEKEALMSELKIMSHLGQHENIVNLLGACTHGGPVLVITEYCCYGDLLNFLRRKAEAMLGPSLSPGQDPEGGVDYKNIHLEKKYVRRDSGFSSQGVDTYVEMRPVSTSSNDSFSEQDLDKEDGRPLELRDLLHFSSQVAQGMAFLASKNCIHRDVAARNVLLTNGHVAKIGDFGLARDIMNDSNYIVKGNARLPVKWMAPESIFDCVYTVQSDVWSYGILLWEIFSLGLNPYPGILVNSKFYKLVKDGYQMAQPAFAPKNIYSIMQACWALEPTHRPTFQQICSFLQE
In words: Assay 1: CSF-1R in vitro AlphaScreen assay. The class given is biochemical. As to conditions: phosphorylation of biotinylated pEY substrate; 0.57 nM CSF-1R, 90 μM ATP. The method, then: Assay 1: CSF-1R in Vitro AlphaScreen Assay
Activity of purified CSF-1R was determined in vitro using an Amplified Luminescent Proximity Homogeneous Assay (ALPHA)(Perkin Elmer), which measures phosphorylation of the CSF-1R substrate, biotinylated poly-glutamine-tyrosine peptide (PEY-HTRF CisBio 61GT0BLD), as described below. The His-tagged kinase domain of CSF-1R (i.e., amino acids 568-912, GeneBank ID NM_005211; (see page 25 lines 13-19 of WO 2006/067445 for the sequence listing)) was purified from baculovirus infected SF+Express insect cells (1.4×10^6 cells/ml), French pressed and chromatographed through subsequent Qiagen Ni-NTA, Superflow Mono Q HR 10/10, and Superdex 200 SEC columns. Typical yield was 245 μg/l of cell pellet at >95% purity.
The phosphorylation of the CSF-1R substrate in the presence and absence of the compound of interest was determined. Briefly, 0.57 nM of purified CSF-1R, 5 nM pEY substrate, and compound were preincubated in 1× buffer for 30 minutes at 25° C. Reactions were initiated with addition of 90 μM adenosine triphosphate (ATP) in 1× buffer and incubated at 25° C. for 60 minutes and reactions stopped by addition of 5 μl of detection mix consisting of 136 mM NaCl, 102 mM ethylenediamine tetraacetic acid, 1.65 mg/ml BSA, 40 ug/ml Streptavidin donor beads (Perkin Elmer 6760002), 40 ug/ml pTyr100 acceptor beads (Perkin Elmer 6760620). Plates were incubated at 25° C. for 18 hours in the dark. Phosphorylated substrate was detected by an EnVision plate reader (Perkin Elmer) 680 nm excitation, 520-620 nm emission. Data was graphed and IC50s calculated using Excel Fit (Microsoft).
Background: Alpha assays give light when donor and acceptor beads are brought close together.
Molecule `COc1cc2c(Nc3ccc(Cl)c(Cl)c3)c(C(N)=O)cnc2cc1C1CC1` [Example 29, 7-Cyclopropyl-4-[(3,4-dichlorophenyl)amino]-6-methoxyquinoline-3-carboxamide] registered an IC50 of 57 nM.

For `CCOc1cc2ncc(C(N)=O)c(Nc3ccc(F)cc3F)c2cc1-c1ccc(OC)nc1` [Example 30, 4-[(2,4-Difluorophenyl)amino]-7-ethoxy-6-(6-methoxypyridin-3-yl)quinoline-3-carboxamide], it took 76 nM to reach half-maximal inhibition (IC50).

Turning to `COc1cc2ncc(C(N)=O)c(Nc3ccc(Cl)c(Cl)c3)c2cc1CCCNC1CC1` [Example 11, 6-[3-(Cyclopropylamino)propyl]-4-[(3,4-dichlorophenyl)amino]-7-methoxyquinoline-3-carboxamide], inhibition was half-maximal at 4 nM (IC50).

`CCOc1cc2ncc(C(N)=O)c(Nc3cc(C)ccc3F)c2cc1C1CCN(C(C)C)CC1` [Example 48, 7-Ethoxy-4-[(2-fluoro-5-methylphenyl)amino]-6-(1-isopropylpiperidin-4-yl)quinoline-3-carboxamide] gave an IC50 of 3 nM.

Molecule `COc1cc2ncc(C(N)=O)c(Nc3ccc(Cl)c(Cl)c3)c2cc1CCCO` [Example 15, 4-[(3,4-Dichlorophenyl)amino]-6-(3-hydroxypropyl)-7-methoxyquinoline-3-carboxamide] had an IC50 of 2 nM.

For the molecule `CCOc1cc2ncc(C(N)=O)c(Nc3ccc(F)cc3F)c2cc1C1CCNCC1` [Example 40, 4-[(2,4-Difluorophenyl)amino]-7-ethoxy-6-piperidin-4-ylquinoline-3-carboxamide], the IC50 stood at 7 nM.

`CCOc1cc2ncc(C(N)=O)c(Nc3ccc(F)cc3F)c2cc1CCCO` [Example 16, 4-[(2,4-Difluorophenyl)amino]-7-ethoxy-6-(3-hydroxypropyl)quinoline-3-carboxamide] showed an IC50 of 5 nM. This IC50 and that of the molecule before are within 1.5-fold of each other.

`CCOc1cc2ncc(C(N)=O)c(Nc3ccc(F)cc3F)c2cc1C1=CCNCC1` [Example 39, 4-[(2,4-Difluorophenyl)amino]-7-ethoxy-6-(1,2,3,6-tetrahydropyridin-4-yl)quinoline-3-carboxamide] gave an IC50 below 3 nM.

`CCOc1cc2ncc(C(N)=O)c(Nc3ccc(F)cc3F)c2cc1-c1ccc(=O)[nH]c1` [Example 59, 4-[(2,4-Difluorophenyl)amino]-7-ethoxy-6-(6-oxo-1,6-dihydropyridin-3-yl)quinoline-3-carboxamide] came in with an IC50 of 7 nM.

`COc1cc2ncc(C(N)=O)c(Nc3ccc(Cl)c(Cl)c3)c2cc1CCCN(C)C` [Example 13, 4-[(3,4-Dichlorophenyl)amino]-6-[3-(dimethylamino)propyl]-7-methoxyquinoline-3-carboxamide] displayed an IC50 of 1 nM. This IC50 lies about 7-fold lower than the previous one.

As for `CCOc1cc2ncc(C(N)=O)c(Nc3cccc(Cl)c3Cl)c2cc1CCCO` [Example 24, 4-[(2,3-Dichlorophenyl)amino]-7-ethoxy-6-(3-hydroxypropyl)quinoline-3-carboxamide], half-maximal inhibition (IC50) required 26 nM.

With `COc1cc2ncc(C(N)=O)c(Nc3ccc(F)cc3F)c2cc1C1CCN(C(C)=O)CC1` [Example 55, 6-(1-Acetylpiperidin-4-yl)-4-[(2,4-difluorophenyl)amino]-7-methoxyquinoline-3-carboxamide], it took 15 nM to reach half-maximal inhibition (IC50).

`COc1cc2ncc(C(N)=O)c(Nc3ccc(Cl)c(Cl)c3)c2cc1C1CC1` [Example 26, 6-Cyclopropyl-4-[(3,4-dichlorophenyl)amino]-7-methoxyquinoline-3-carboxamide] had an IC50 of 140 nM.

`CCOc1cc2ncc(C(N)=O)c(Nc3ccc(F)cc3F)c2cc1-c1cccnc1` [Example 31, 4-[(2,4-Difluorophenyl)amino]-7-ethoxy-6-pyridin-3-ylquinoline-3-carboxamide]: it took 43 nM to reach half-maximal inhibition (IC50).

For `COc1cc2ncc(C(N)=O)c(Nc3ccc(F)cc3F)c2cc1CCCNC1CC1` [Example 10, 6-[3-(Cyclopropylamino)propyl]-4-[(2,4-difluorophenyl)amino]-7-methoxyquinoline-3-carboxamide], inhibition was half-maximal at 23 nM (IC50).

Molecule `CCOc1cc2ncc(C(N)=O)c(Nc3ccc(C)cc3F)c2cc1C1CCN(C(C)C)CC1` [Example 47, 7-Ethoxy-4-[(2-fluoro-4-methylphenyl)amino]-6-(1-isopropylpiperidin-4-yl)quinoline-3-carboxamide] yielded an IC50 of 4 nM. This IC50 is about 5.8-fold lower than that of the molecule before.

`COc1cc2ncc(C(N)=O)c(Nc3ccc(F)cc3F)c2cc1CCCN1CCCCC1` [Example 8, 4-[(2,4-Difluorophenyl)amino]-7-methoxy-6-(3-piperidin-1-ylpropyl)quinoline-3-carboxamide] returned an IC50 of 20 nM.

Molecule `CCOc1cc2ncc(C(N)=O)c(Nc3ccc(Cl)c(Cl)c3)c2cc1CCCO` [Example 23, 4-[(3,4-Dichlorophenyl)amino]-7-ethoxy-6-(3-hydroxypropyl)quinoline-3-carboxamide] displayed an IC50 of 22 nM.

In the case of `COc1cc2ncc(C(N)=O)c(Nc3ccc(F)cc3F)c2cc1CCCO` [Example 14, 4-[(2,4-Difluorophenyl)amino]-6-(3-hydroxypropyl)-7-methoxyquinoline-3-carboxamide], the IC50 stood at 8 nM.

For the molecule `CCOc1cc2ncc(C(N)=O)c(Nc3ccc(F)cc3F)c2cc1C1=CCN(C(C)=O)CC1` [Example 41, 6-(1-Acetyl-1,2,3,6-tetrahydropyridin-4-yl)-4-[(2,4-difluorophenyl)amino]-7-ethoxyquinoline-3-carboxamide], the IC50 was 14 nM.

In turn, `CCOc1cc2ncc(C(N)=O)c(Nc3ccc(F)cc3F)c2cc1-c1cn[nH]c1` [Example 36, 4-[(2,4-Difluorophenyl)amino]-7-ethoxy-6-(1H-pyrazol-4-yl)quinoline-3-carboxamide] showed a concentration for half-maximal inhibition (IC50) of 28 nM.

`CCOc1cc2ncc(C(N)=O)c(Nc3cccc(Cl)c3F)c2cc1C1CCN(C)CC1` [Example 44, 4-[(3-Chloro-2-fluorophenyl)amino]-7-ethoxy-6-(1-methylpiperidin-4-yl)quinoline-3-carboxamide] registered an IC50 below 3 nM.

As for `COc1cc2ncc(C(N)=O)c(Nc3ccc(F)c(Cl)c3)c2cc1CCCO` [Example 17, 4-[(3-Chloro-4-fluorophenyl)amino]-6-(3-hydroxypropyl)-7-methoxyquinoline-3-carboxamide], the IC50 stood at 9 nM. That is a single-digit nanomolar value.

Molecule `COc1cc2c(Nc3ccc(F)cc3F)c(C(N)=O)cnc2cc1C1CC1` [Example 28, 7-Cyclopropyl-4-[(2,4-difluorophenyl)amino]-6-methoxyquinoline-3-carboxamide] registered an IC50 of 14 nM.

In the case of `COc1cc2ncc(C(N)=O)c(Nc3ccc(F)cc3F)c2cc1C1CC1` [Example 27, 6-Cyclopropyl-4-[(2,4-difluorophenyl)amino]-7-methoxyquinoline-3-carboxamide], the IC50 turned out to be 65 nM.

As for `CCOc1cc2ncc(C(N)=O)c(Nc3ccc(CC)cc3)c2cc1CCCO` [Example 22, 7-Ethoxy-4-[(4-ethylphenyl)amino]-6-(3-hydroxypropyl)quinoline-3-carboxamide], the IC50 turned out to be 33 nM.

`CCOc1cc2ncc(C(N)=O)c(Nc3ccc(F)cc3F)c2cc1-c1c(C)noc1C` [Example 32, 4-[(2,4-Difluorophenyl)amino]-6-(3,5-dimethylisoxazol-4-yl)-7-ethoxyquinoline-3-carboxamide] showed an IC50 of 35 nM.

Molecule `COc1cc2ncc(C(N)=O)c(Nc3cccc(Cl)c3F)c2cc1C1CCN(C)CC1` [Example 50, 4-[(3-Chloro-2-fluorophenyl)amino]-7-methoxy-6-(1-methylpiperidin-4-yl)quinoline-3-carboxamide] returned an IC50 of 6 nM.

On to `CCOc1cc2ncc(C(N)=O)c(Nc3ccc(F)cc3F)c2cc1-c1ccc[nH]1` [Example 33, 4-[(2,4-Difluorophenyl)amino]-7-ethoxy-6-(1H-pyrrol-2-yl)quinoline-3-carboxamide], for which the midpoint of inhibition, the IC50, lay at 96 nM.

`CCOc1cc2ncc(C(N)=O)c(Nc3cccc(Cl)c3Cl)c2cc1C1CCN(C)CC1` [Example 45, 4-[(2,3-Dichlorophenyl)amino]-7-ethoxy-6-(1-methylpiperidin-4-yl)quinoline-3-carboxamide]: the IC50 was below 3 nM.

In turn, `CCOc1cc2ncc(C(N)=O)c(Nc3ccc(F)cc3F)c2cc1C1CCN(C)CC1` [Example 43, 4-[(2,4-Difluorophenyl)amino]-7-ethoxy-6-(1-methylpiperidin-4-yl)quinoline-3-carboxamide] yielded an IC50 below 3.9 nM.
